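Assay format: 96-well plates, 48-hour exposure. Here, GI50 denotes the concentration required for 50% inhibition of growth.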 Activity calls are given as the source filed them. Cut-off read from the data, not from the text of the source: active = GI50 up to about 1.1 µM and inactive = higher.
Key:
Experiment in all cases: growth of human tumour cells (NCI), 48 h
[1] = system: HL-60
[2] = system: EKVX
[3] = system: MDA-MB-435
[4] = system: T47D
[5] = system: K562
[6] = system: U-251
[7] = system: HCC 2998
[8] = system: RXF 393
[9] = system: RPMI-8226
[10] = system: SK-MEL-5
[11] = system: Malme-3M
[12] = system: Hs-578T
[13] = system: UACC-257
[14] = system: SF-539
[15] = system: UO-31
[16] = system: COLO 205
[17] = system: MDA-MB-231
[18] = system: UACC-62
[19] = system: SR
[20] = system: MOLT-4

SMILES | GI50 [1] | GI50 [2] | GI50 [3] | GI50 [4] | GI50 [5] | GI50 [6] | GI50 [7] | GI50 [8] | GI50 [9] | GI50 [10] | GI50 [11] | GI50 [12] | GI50 [13] | GI50 [14] | GI50 [15] | GI50 [16] | GI50 [17] | GI50 [18] | GI50 [19] | GI50 [20]
O=C1Sc2ccccc2NC1=C(C(=O)c1ccccc1)C(=O)c1ccccc1 | 1.87 µM (inactive) | 33.1 µM (inactive) | 40.6 µM (inactive) | 26.5 µM (inactive) | 2.88 µM (inactive) | 16 µM (inactive) | 19.4 µM (inactive) | 47.1 µM (inactive) | 12.6 µM (inactive) | 16.8 µM (inactive) | 41.2 µM (inactive) | 62.5 µM (inactive) | 17.5 µM (inactive) | 26.5 µM (inactive) | 29.9 µM (inactive) | 37.4 µM (inactive) | 65.6 µM (inactive) | 27 µM (inactive) | – | –
Cc1cc(C)n(C(=CC(=O)C(Cl)Cl)n2nc(C)cc2C)n1 | 3.32 µM (inactive) | – | 2.52 µM (inactive) | 4.06 µM (inactive) | 2.17 µM (inactive) | 5.12 µM (inactive) | – | 2.61 µM (inactive) | 0.871 µM (active) | 5.98 µM (inactive) | 4.35 µM (inactive) | 5.21 µM (inactive) | 1.32 µM (inactive) | 3.43 µM (inactive) | 4.71 µM (inactive) | 13.8 µM (inactive) | 2.38 µM (inactive) | 1.66 µM (inactive) | 1.61 µM (inactive) | 0.151 µM (active)
O=c1c2c3c(sc2nc2n1NC=NN2)CCCC3 | 1.2 µM (inactive) | 13.3 µM (inactive) | 12.8 µM (inactive) | 31.8 µM (inactive) | 2.15 µM (inactive) | 16 µM (inactive) | 24.4 µM (inactive) | 25.2 µM (inactive) | 20.5 µM (inactive) | 16.4 µM (inactive) | 21.4 µM (inactive) | 21.8 µM (inactive) | 19.9 µM (inactive) | 17.4 µM (inactive) | > 44.7 µM (inactive) | 25.4 µM (inactive) | 13.4 µM (inactive) | 17.6 µM (inactive) | – | 0.323 µM (active)
COc1cc(/C=N/NC(=O)c2c(Cl)c(Cl)c(Cl)c(Cl)c2-c2nc3cc(C(=O)c4ccccc4)ccc3[nH]2)ccc1O | 19.2 µM (inactive) | 63.8 µM (inactive) | 13.8 µM (inactive) | 22.6 µM (inactive) | 15.8 µM (inactive) | 35.4 µM (inactive) | – | 21.6 µM (inactive) | 30.8 µM (inactive) | 20.4 µM (inactive) | 54.8 µM (inactive) | 60 µM (inactive) | 60.8 µM (inactive) | 24.9 µM (inactive) | 45.6 µM (inactive) | 24.8 µM (inactive) | 26.8 µM (inactive) | – | 11.5 µM (inactive) | 16.4 µM (inactive)
O=c1[nH]c(NCc2ccncc2)nc2[nH]cnc12 | – | > 100 µM (inactive) | > 100 µM (inactive) | > 100 µM (inactive) | > 100 µM (inactive) | > 100 µM (inactive) | > 100 µM (inactive) | > 100 µM (inactive) | > 100 µM (inactive) | > 100 µM (inactive) | > 100 µM (inactive) | > 100 µM (inactive) | > 100 µM (inactive) | – | > 100 µM (inactive) | > 100 µM (inactive) | > 100 µM (inactive) | > 100 µM (inactive) | – | > 100 µM (inactive)
O=C1CC(Br)c2c(Br)sc(Br)c21 (stereo unspecified) | 14.2 µM (inactive) | 19.3 µM (inactive) | 20 µM (inactive) | 17.6 µM (inactive) | 7.73 µM (inactive) | 17.3 µM (inactive) | – | 18.3 µM (inactive) | 8.04 µM (inactive) | 19.8 µM (inactive) | 19.7 µM (inactive) | 36.7 µM (inactive) | 15.7 µM (inactive) | 24.5 µM (inactive) | 16.4 µM (inactive) | 19.8 µM (inactive) | 18.9 µM (inactive) | 17.1 µM (inactive) | – | 0.906 µM (active)
c1ccc(CSCCC(SCc2ccccc2)SCc2ccccc2)cc1 | > 10 µM (inactive) | > 10 µM (inactive) | – | > 10 µM (inactive) | > 10 µM (inactive) | > 10 µM (inactive) | > 10 µM (inactive) | > 10 µM (inactive) | > 10 µM (inactive) | > 10 µM (inactive) | > 10 µM (inactive) | > 10 µM (inactive) | > 10 µM (inactive) | > 10 µM (inactive) | > 10 µM (inactive) | > 10 µM (inactive) | > 10 µM (inactive) | > 10 µM (inactive) | > 10 µM (inactive) | > 10 µM (inactive)
NS(=O)(=O)c1ccc(CNC(=S)NC(=O)Nc2ccc(Cl)c(Cl)c2)cc1 | – | – | – | 18.1 µM (inactive) | 16.1 µM (inactive) | 11.9 µM (inactive) | – | 27.9 µM (inactive) | 16 µM (inactive) | 17.8 µM (inactive) | 26.2 µM (inactive) | 17.1 µM (inactive) | 32.8 µM (inactive) | 21.2 µM (inactive) | 16.9 µM (inactive) | 33 µM (inactive) | 10.6 µM (inactive) | 15.1 µM (inactive) | – | 15.9 µM (inactive)
O=[N+]([O-])c1ccc(NC(=S)N/N=C(\c2ccccc2)c2ccccn2)cc1 | < 0.0129 µM (active) | 0.231 µM (active) | 1.74 µM (inactive) | 1.45 µM (inactive) | < 0.01 µM (active) | 1.36 µM (inactive) | 1.51 µM (inactive) | 1.38 µM (inactive) | 4.74 µM (inactive) | 1.36 µM (inactive) | 1.65 µM (inactive) | 3.3 µM (inactive) | 1.6 µM (inactive) | 1.74 µM (inactive) | 1.46 µM (inactive) | 0.312 µM (active) | < 0.01 µM (active) | 1.24 µM (inactive) | – | < 0.0314 µM (active)
C=CC(O)(CBr)CCC(Br)C(=C)C (stereo unspecified) | > 10 µM (inactive) | > 10 µM (inactive) | > 10 µM (inactive) | > 10 µM (inactive) | > 10 µM (inactive) | > 10 µM (inactive) | > 10 µM (inactive) | > 10 µM (inactive) | > 10 µM (inactive) | > 10 µM (inactive) | > 10 µM (inactive) | > 10 µM (inactive) | > 10 µM (inactive) | > 10 µM (inactive) | – | > 10 µM (inactive) | > 10 µM (inactive) | > 10 µM (inactive) | – | > 10 µM (inactive)
Cc1ccc(S(=O)(=O)N2CCc3cc(O)c([N+](=O)[O-])cc32)cc1 | > 100 µM (inactive) | – | > 100 µM (inactive) | > 100 µM (inactive) | – | > 100 µM (inactive) | – | > 100 µM (inactive) | – | > 100 µM (inactive) | > 100 µM (inactive) | > 100 µM (inactive) | > 100 µM (inactive) | > 100 µM (inactive) | > 100 µM (inactive) | > 100 µM (inactive) | > 100 µM (inactive) | > 100 µM (inactive) | – | > 100 µM (inactive)
COc1ccc(OC)c(C23CCCC(C2)N(C)CC3)c1 (stereo unspecified) | – | 43.6 µM (inactive) | 20.1 µM (inactive) | 33.3 µM (inactive) | 17 µM (inactive) | 11.7 µM (inactive) | – | 29.9 µM (inactive) | 12.7 µM (inactive) | – | – | 38.1 µM (inactive) | 36.6 µM (inactive) | – | 28.6 µM (inactive) | – | 21.3 µM (inactive) | 20.9 µM (inactive) | 18.4 µM (inactive) | 32.1 µM (inactive)
Nc1nc(Cl)cc(/N=N\c2ccccc2)n1 | 6.38 µM (inactive) | 37.2 µM (inactive) | > 100 µM (inactive) | 32.6 µM (inactive) | 2.14 µM (inactive) | – | – | 30.3 µM (inactive) | 20.7 µM (inactive) | 15.8 µM (inactive) | 83.8 µM (inactive) | 35.9 µM (inactive) | 36.1 µM (inactive) | 78.9 µM (inactive) | 42.1 µM (inactive) | 27.5 µM (inactive) | 22.1 µM (inactive) | 28.2 µM (inactive) | 9.79 µM (inactive) | 18.5 µM (inactive)
COC(=O)C1=C(C(=O)OC)SC2(S1)C1=C(CCCC1)SC(C(=O)OC)=C2C(=O)OC | 2.91 µM (inactive) | 13.3 µM (inactive) | 2.81 µM (inactive) | 2.54 µM (inactive) | 1.62 µM (inactive) | 6.67 µM (inactive) | 12.3 µM (inactive) | 2.33 µM (inactive) | 0.586 µM (active) | 10.1 µM (inactive) | 11.4 µM (inactive) | 15.9 µM (inactive) | 13.1 µM (inactive) | 1.51 µM (inactive) | 4.58 µM (inactive) | 9.25 µM (inactive) | 15.8 µM (inactive) | 12.7 µM (inactive) | – | 1.93 µM (inactive)
CC1=NN=C(N)N/C1=C/C(Sc1ccc(Cl)cc1)c1cccs1 (stereo unspecified) | 4.07 µM (inactive) | 14.4 µM (inactive) | 13.3 µM (inactive) | 22 µM (inactive) | 13.9 µM (inactive) | 24.5 µM (inactive) | 12.4 µM (inactive) | 17.4 µM (inactive) | 12.2 µM (inactive) | 11.5 µM (inactive) | 13.1 µM (inactive) | 17 µM (inactive) | 18.3 µM (inactive) | – | 4.45 µM (inactive) | 22.1 µM (inactive) | > 10 µM (inactive) | > 10 µM (inactive) | – | 13.6 µM (inactive)
N#CC(c1ccccc1)N(CCOCCOCCN(C(=O)c1ccccc1)C(C#N)c1ccccc1)C(=O)c1ccccc1 (stereo unspecified) | 36.2 µM (inactive) | > 100 µM (inactive) | 83 µM (inactive) | 7.08 µM (inactive) | 56.6 µM (inactive) | > 100 µM (inactive) | 94.2 µM (inactive) | > 100 µM (inactive) | – | 34.9 µM (inactive) | 93.5 µM (inactive) | > 100 µM (inactive) | 47.1 µM (inactive) | > 100 µM (inactive) | 37.1 µM (inactive) | > 100 µM (inactive) | > 100 µM (inactive) | 53.6 µM (inactive) | – | 32.2 µM (inactive)

Reference: ChEMBL document CHEMBL1201862, “PubChem BioAssay data set” (2004)
